Laboratory results taken from patent US20080274076A1, “Composition for Use in Controlling Aedes Aegypti Mosquitoes” (priority 2005, published 2008).

Experiments:
[1] = tested on: Aedes aegypti mosquitoes; assay: field test of the luring effect: open water tanks, one treated with heneicosane solution; assay type: in vivo
Method: Fifteen open tanks with water filled to the top were kept in the open. All the tanks were made of same material, were of the same size and contained same amount of water from the same source. The tanks were numbered consecutively and allowed to remain for a week.
All the fifteen tanks were drained of water and thoroughly cleaned. Subsequently, they were filled with water from the same source. In tank No. 1, a predetermined amount of a solution of heneicosane in n-hexane (1% w/v) was added. After fifteen days, water from each tank was analysed.
Example No. 4 was repeated 14 times with heneicosane being added in tank Nos. 2 to 15 consequentially.
Example Nos. 4 and 5 were repeated with heneicosane dissolved in n-pentane.
The above example was repeated with varying concentrations of heneicosane in the solvent.

[2] = tested on: Aedes aegypti mosquitoes; assay: oviposition attractant effect of semio-chemicals identified in larval conditioned water; assay type: in vivo
From the text: The present invention also relates to a process for the preparation of compositions for use in lure and/or killing of Aedes aegypti mosquitoes. The present invention is based on the unexpected finding that Aedes aegypti mosquitoes tend to lay eggs in stagnant water where eggs of the same species of mosquitoes had been laid previously. This led the inventors to analyse various samples of water which in turn led to the finding that water in which eggs had previously been laid by Aedes aegypti mosquitoes and which had hatched into larval stage contained various semio-chemicals. Analysis of these semio-chemicals identified them as heneicosane, nonacosane, octadecane, isopropyl myristate and docosane. […] When, stagnant water in which Aedes aegypti mosquitoes had bred earlier was left untouched the incidence of further egg laying in the same water and thriving of larval population increased. […]
Aedes aegypti mosquitoes are bred and the water is collected for isolation where the mosquitoes are at larval stage. […] The extractant is analysed by various spectral techniques like IR, NMR and GCMS and the five semio-chemicals identified are heneicosane, nonacosane, octadecane, isopropyl myristate and decosane.

With `CCCCCCCCCCCCCCCCCCCCC` [heneicosane, n-heneicosane] the “attraction of mosquitoes to lay eggs in the treated tank” value ([1]; Example 4 repeated 14 times with heneicosane added in tank Nos. 2 to 15 consequentially) was “each time the tank containing heneicosane attracted Aedes aegypti mosquitoes to lay their eggs therein”, the “luring result with another solvent” value ([1]; Example Nos. 4 and 5 repeated with heneicosane dissolved in n-pentane) was “The results were exactly the same” and the “mosquito larvae found in tanks (egg laying lured to treated tank)” value ([1]; field conditions, 15 open tanks, solution of heneicosane in n-hexane (1% w/v) added to tank No. 1, after fifteen days) was “only tank No. 1 containing the heneicosane contained mosquito larvae”. The “effectiveness as oviposition attractant among the five identified semio-chemicals” value ([2]; compared with nonacosane, octadecane, isopropyl myristate and docosane) was “most effective oviposition attractant” and the “site of egg laying, stagnant water versus water containing heneicosane” value ([2]; stagnant water kept alongside water containing heneicosane) was “the entire egg laying took place only in water containing heneicosane”.
